US12048768B2, “Gastro-resistant controlled release oral dosage forms” (Minerva Neurosciences, Inc., priority 2017, dated 2024)

Experiments:
[1] = human, in vivo
[2] = Phase 2b study of MIN-101 in patients with schizophrenia (negative symptoms, cognitive function, CDSS); format: in vivo, human
Description: The oral dosage forms used in this Phase 2b study were the 32 mg MR tablet described in Example 1 below and an essentially identical 64 mg MR tablet.
Thus, in an aspect, administration of a gastro-resistant CR oral dosage form of the present disclosure to a patient with a diagnosis of schizophrenia is intended to improve cognitive function in the patient.
A secondary outcome of the phase 2b study of MIN-101 discussed above was patients' performance on the Calgary Depression Scale for Schizophrenia (CDSS) ADDINGTON D, ADDINGTON J, MATICKA-TYNDALE E. ASSESSING DEPRESSION IN S CHIZOPHRENIA: THE CALGARY DEPRESSION SCALE. BRITISH JOURNAL OF PSYCHIATRY SUPPLEMENT 1993; (22):39-44. The CDSS has little overlap with positive and negative symptoms and has become the recommended scale to assess the severity of depression in patients with schizophrenia. In the phase 2b study, the severity of symptoms as measured by the CDSS was reduced following treatment with 32 or 64 mg of MIN-101 compared to placebo. […] Thus, since the effects of MIN-101 on negative symptoms and depression symptoms in schizophrenia patients were largely independent of each other, MIN-101 has the potential to alleviate one or more depression symptoms in patients who are not schizophrenic.

[3] = as disclosed in U.S. Pat. No. 9,458,130; cited from earlier work

Structure (SMILES): Cl.O.O.O=C(CN1CCC(CN2Cc3ccccc3C2=O)CC1)c1ccc(F)cc1 [MIN-101, 1H-Isoindol-1-one, 2-[[1-[2-(4-Fluorophenyl)-2-oxoethyl]-4-piperidinyl]methyl]-2,3-dihydro-, hydrochloride, hydrate (1:1:2)]
- Plasma levels of BFB-520 in CYP2D6 poor metabolizers [1]: high plasma levels of BFB-520
- Cognitive function ([2]; phase 2b study): improvement in cognitive function
- Negative symptoms in patients with schizophrenia ([2]; phase 2b, 32 mg and 64 mg MR tablets): rapid, statistically significant and clinically meaningful reductions in negative symptoms
- Severity of depression symptoms as measured by the CDSS ([2]; phase 2b, 32 or 64 mg compared to placebo): reduced
- QT prolongation in patients [3]: has been observed
